Reference: patent US6602499B1, “Combination viral-based and gene-based therapy of tumors” (priority 1998, dated 2003)

Experiments:
9L cells = experiment: Viral yields from infected 9L cells treated with cyclophosphamide, plaque assay on Vero cells; format: cell-based, rat; settings: 9L cells infected with rRp450 in presence or absence of cyclophosphamide, three days
Method: Three day later, cells and supernatants were harvested and virus was harvested by freeze-thawing three times. Plaque-assays on Vero cells were performed to measure viral yields. Assay was performed in triplicate plates.
Cell culture studies: Cells were usually plated the day before viral infection. The following day, 3 random dishes were trypsinized and cell numbers were enumerated using a Coulter counter. Based on the mean cell number, the viral mutant was added to achieve the desired multiplicity of infection (MOI). Experiments were performed in triplicate dishes.
CPA: CPA was added at the start of the incubation period at a concentration of 250 Um.

human U87 tumors = experiment: Subcutaneous human U87 glioma tumors in athymic mice, intratumoral injection; format: in vivo; settings: rRp450 2.5×10^8 pfus plus vehicle, or 1 mg CPA alone
Description: FIG. 6B is a graph depicting the in vivo augmentation of rRp450's oncolytic effect by CPA on U87 tumors. Human U87 tumors were inoculated with CPA (closed circles), rRp450 plus vehicle (open circles), or rRp450 plus CPA (dark squares). The black vertical arrows indicate the times of injection (days 1, 2, 4, and 6). Values represent the average tumor volume from 5 mice per group. Error bars represent the standard error of the mean. For this experiment, differences were statistically significant at the 22, 26 and 29 day time point (P<0.05, one way analysis of variance).
In a similar experiment, visible subcutaneous nodules (the range of volumes was 10-135 mm^3 and the average volume was 74 mm^3) were established by the injection of 10^6 human U87 glioma cells into the subcutaneous flank of athymic mice (NCY/sed, nu/nu; MGH breeding colony). Thirty days later the tumors were treated with intratumoral injections, using a Hamilton syringe, of 1 mg CPA in 125 ul of medium, rRp450 (2.5×10^8 pfus) plus vehicle in 125 ul of medium, or rRp450 (2.5×10^8 pfus) plus 1 mg CPA in 125 ul of medium. Tumor inoculations were repeated on day 2, day 4 and day 6. Five mice were used per treatment group. […]

[1] = tested on: rRp450- and hrR3-infected 9L cells; experiment: Viral protein synthesis (35S-methionine pulse, autoradiography) in infected 9L cells; format: cell-based, rat; settings: 9L cells grown with 250 uM CPA or 100 ng/ml ganciclovir for 30 hours, then infected with rRp450 or hrR3 at MOI=3
Method: FIG. 4 is an autoradiograph depicting the effect of CPA on rRp450 protein synthesis in infected 9L tumor cells. 9L tumor cells were grown in the presence of CPA (lanes 3 and 6), 100 ng/ml ganciclovir (lanes 2 and 5), or vehicle (lanes 1 and 4). Cells from each group were then infected with rRp450 (lanes 4-6) or hrR3 (lanes 1-3). After pulsing with ^35S-methionine, cell lysates were separated by electrophoresis. The designations, 6,5,8, gB, and pgB indicate the viral ICP6-lacZ fusion, ICP5, ICP8, and glycoprotein B, respectively. The size of molecular weight markers is indicated on the left side of the blot.
Measurement of Viral Protein Synthesis: 9L tumor cells were grown in the presence of 250 uM CPA, 100 ng/ml ganciclovir, or vehicle for 30 hours. Cells from each group were then infected with rRp450 or hrR3 at an MOI=3. Control plates were infected with a mock viral preparation. Eighteen hours later, medium was removed and fresh medium containing 20 uCi of ^35S-methionine was added. Cells were then scraped and harvested two hours later. Cell pellets were resuspended in sodium phosphate, pH=7.3. in 0.9% sodium chloride in the presence of protease inhibitors and then sheared by passage through a 28 and a ½ gauge needle. Protein concentrations were calculated by using a commercially available kit (BioRad). […]

Vero cells = format: cell-based; settings: CPA at concentrations up to 200 uM

Row | Structure (SMILES) | Effect of CPA on replication of rRp450 (9L cells) | Growth of U87 tumors, agent alone (human U87 tumors) | Effect of drug on viral protein synthesis [1] | Inhibition of plaque production (Vero cells)
1 | O=P1(N(CCCl)CCCl)NCCCO1 (stereo not drawn) [CPA, cyclophosphamide] | did not significantly inhibit replication of rRp450 | relatively rapid | did not appear to significantly inhibit viral protein synthesis | did not inhibit plaque production
2 | Nc1nc(O)c2ncn(COC(CO)CO)c2n1 [ganciclovir] |  |  | inhibited the synthesis of viral proteins | did
